Test results published in BindingDB's records for doi:10.7270/Q2M61HPT (Nmmlsc, 2008).

Target: Glutathione S-transferase class-mu 26 kDa isozyme (Schistosoma japonicum, UniProt P08515)
Experiment: GST–glutathione interaction disruption – biochemical, multiplex beads, flow cytometry, HPSMTB buffer, profiling panel (AID 1324)

Glutathione S-transferase class-mu 26 kDa isozyme, sequence (P08515 2-218 limits assumed): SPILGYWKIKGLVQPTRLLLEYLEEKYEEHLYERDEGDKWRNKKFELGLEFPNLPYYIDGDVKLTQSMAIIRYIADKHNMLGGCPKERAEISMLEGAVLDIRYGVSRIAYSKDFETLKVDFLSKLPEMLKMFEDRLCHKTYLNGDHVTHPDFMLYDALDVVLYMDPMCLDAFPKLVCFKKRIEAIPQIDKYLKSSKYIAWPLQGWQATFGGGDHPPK

Compound	EC50 [µM]
CN(C)[C@@H]1C(=O)C(C(=O)NCN2CCCC2)C(=O)[C@@]2(O)C(=O)C3C(=O)c4c(O)cccc4[C@@](C)(O)C3CC12 (stereo partly drawn) [(2Z,4S,6S,12aS)-4-(dimethylamino)-6,10,11,12a-tetrahydroxy-2-[hydroxy-(1-pyrrolidinylmethylamino)methylidene]-6-methyl-4,4a,5,5a-tetrahydrotetracene-1,3,12-trione]	21.4
COc1cccc(CN=Nc2nn3cnnc3c3ccccc23)c1 [N-[1-(3-Methoxy-phenyl)-meth-(E)-ylidene]-N'-[1,2,4]triazolo[3,4-a]phthalazin-6-yl-hydrazine]	7.28
COc1cc(CN=Nc2nn3cnnc3c3ccccc23)ccc1O [(4E)-2-methoxy-4-[[2-([1,2,4]triazolo[3,4-a]phthalazin-6-yl)hydrazinyl]methylidene]cyclohexa-2,5-dien-1-one]	2.36
O=[N+]([O-])c1ccc(N=NCc2ccc(O)c(O)c2O)c(S(=O)(=O)N2CCOCC2)c1 [MLS000336720]	24
